# Reference: US20240180485A1, “METHOD AND DEVICE FOR INDUCING HYPOMETABOLIC STATE IN SUBJECT WITH DISEASE” (UNIVERSITY OF TSUKUBA, priority 2021, published 2024)
# How the values were obtained:
# [1] = tested on: wild-type mice; assay: Metabolic state induced by IP CHA in wild-type mice
# Method: The adenosinea receptor agonist CHA (N6-cyclohexyladenosine, Sigma-Aldrich, C9901) was dissolved in physiological saline at a concentration of 250 μg/mL, and the resulting solution was intraperitoneally administered to each mouse at a dose of 2.5 mg/kg.
# In addition, the metabolic state induced by systemic delivery of the adenosine A1AR agonist (6)N-cyclohexyladenosine (CHA), which is used to induce a hypothermic state, was also investigated^19.
# [2] = tested on: Q-hM3D mice; conditions: mouse, in vivo
# Source text: In order to evaluate the thermoregulatory system under QIH and normal conditions, the heat loss and the heat production of the animals were described by a hierarchical multilayer model (FIGS. 3c to 3k, code folder QIH_GTRH). Three parameters of G, TR, and H under two metabolic conditions, that is, normal and QIH, were estimated from a metabolically stable state of the animals at various TAs. […] In brief, a linear model consisting of the controllable parameter TA and the observable parameters TB and VO2 was fitted to the experimental results for both TB and VO2 by using TA as a predictor having normally distributed noise. Next, G, TR, and H were estimated by using the posterior distributions of the slope and the intercept coefficient of each model. In this analysis, the prior probability density function of the standard deviation of noise was a standard half-normal distribution, and the other parameters used a positive region of a uniform distribution except for the intercept coefficient of TB, which used a uniform distribution due to negative values.
# In order to evaluate this, feature analysis of the thermoregulatory system of mice during QIH was carried out. […] Q-hM3D mice were prepared, and TB and VO2 were recorded during QIH at various TAs (8, 12, 16, 20, 24, 28, and 32° C.) (FIG. 3a). […]
# [3] = tested on: AVPe/MPA including Q-neurons; conditions: AAV10-CaMKIIα-hM3Dq-mCherry injected into AVPe/MPA; cited from earlier work
# [4] = tested on: Q-hM3D mice; assay: Body temperature, oxygen consumption, heart rate and respiration after CNO IP in Q-hM3D mice; type: in vivo, mouse
# [5] = tested on: neurons in AVPe, MPA, and Pe; assay: Fos immunostaining after CNO IP in Q-hM3D mice; type: in vivo, mouse; conditions: 90 minutes after CNO IP
# Method: Each mouse was deeply anesthetized with isoflurane, transcardially perfused with 10% sucrose in water, and subsequently perfused with ice-cooled 4% paraformaldehyde (4% PFA) in a 0.1 M phosphate buffer having a pH of 7.4, and the brain was removed. The brain was left in 4% PFA overnight at 4° ° C., then fixed, incubated overnight at 4° C. in 30% sucrose in a 0.1 M phosphate buffered saline (PBS) having a pH of 7.4, immersed in a Tissuue-Tek O.C.T. compound (Sakura) in a cryomold, and frozen at −80° C. until sectioned. The brain was sliced coronally by using a cryostat (CM1860, Leica) every 50 μm into four equal series, collected in a 6-well plate filled with ice-cooled PBS, and washed three times with PBS at room temperature (RT). Unless otherwise specified, the following incubation step was carried out with gently shaking on an orbital shaker. Brain sections were incubated for 1 hour at room temperature in 1% Triton X-100 in PBS. […]
# The primary antibodies used in the present study were rabbit anti-cFos (1:4000, ABE457, Millipore), goat anti-mCherry (1:15000, AB0040-200, SICGEN), rat anti-GFP (1:5000, 04404-84, NACALAI TESQUE), mouse anti-TH (1:1000, sc-25269, Santa Cruz Biotechnology), mouse anti-orexin A (1:200, sc-80263, Santa Cruz Biotechnology), and rabbit anti-MCH (1:2000, M8440, SIGMA). […] Brain regions were determined by using mouse brain maps from Paxinos and Franklin^36.
# [6] = tested on: hM3Dq-mCherry-expressing neurons; assay: Current-clamp recording of hypothalamus slices with bath-applied CNO; type: cell-based, mouse; conditions: bath application; CNO 1 μM; 30° C.
# Method: The mice were decapitated under deep anesthesia using isoflurane (Pfizer). The brains were extracted and cooled in an ice-cold cutting solution containing the following (mM): 125 mM choline chloride, 25 mM NaHCO3, 10 mM D(+)-glucose, 7 mM MgCl2, 2.5 mM KCl, 1.25 mM NaH2PO4, and 0.5 mM CaCl2 bubbled with O2 (95%) and CO2 (5%). Horizontal brain slices (250 μm in thickness) including the hypothalamus were prepared by using a vibratome (VT1200S, Leica) and were maintained at room temperature for 1 hour in artificial CSF (ACSF) containing the following (mM): 125 mM NaCl, 26 mM NaHCO3, 10 mM D(+)-glucose, 2.5 mM KCl, 2 mM CaCl2), and 1 mM MgSO4 bubbled with O2 (95%) and CO2 (5%). The electrodes (5 to 8 MΩ) were filled with an internal solution containing the following (mM): 125 mM K-gluconate, 10 mM HEPES, 10 mM phosphocreatine, 0.05 mM tolbutamide, 4 mM NaCl, 4 mM ATP, 2 mM MgCl2, 0.4 mM GTP, and 0.2 mM EGTA, pH 7.3, adjusted with KOH). Firing of hM3Dq-mCherry-expressing neurons was recorded in current-clamp mode at a temperature of 30° C. CNO (1 μM) was bath-applied, and the effect was investigated. The membrane potential and data acquisition were controlled by using a combination of a MultiClamp 700B amplifier, a Digidata 1440A A/D converter, and Clampex 10.3 software (Molecular Devices). […]
# [7] = tested on: Qrfp-iCre; Rosa26^dreaddm3 mice; assay: Thermographic surface body temperature and motor activity after CNO in Qrfp-iCre; Rosa26^dreaddm3 mice; type: in vivo, mouse
# Source text: For thermographic analysis, the mice were placed in an experimental cage (25×15×10 cm) and monitored by using an infrared thermal imaging camera (InfReC R500 EX; NIPPON AVIONICS) placed 30 cm above the cage floor. In order to clearly detect the surface temperature, the dorsal hair was removed by using hair clippers one day before the start of the experiment. Thermograms of DREADD and optogenetic experiments were collected at 0.5 Hz and 1 Hz, respectively, and analyzed by using the InfReC Analyzer NS9500 Professional software (NIPPON AVIONICS). The highest temperature in one frame was used as TS of the animal (FIG. 1d).
# The pyroglutamylated RFamide peptide (QRFP), a hypothalamic neuropeptide, was originally discovered through a bioinformatics approach aimed at the discovery of a new RFamide peptide^9,10. The Qrfp peptide was also identified and purified from the rat brain as an endogenous ligand for the orphan G-protein-coupled receptor hGPR103^11. The prepro-Qrfp mRNA is localized only in the hypothalamus and is distributed in the periventricular nucleus (Pe), the lateral hypothalamus (LHA), and the tuber cinereum (TC) 11. Orfp has previously been implicated in food intake, sympathetic regulation, and anxiety^11,12. The inventors prepared mice (Qrfp-iCre mice) having codon-improved Cre recombinase (iCre) knocked-in into the Qrfp gene. In order to obtain mice (Qrfp-iCre; Rosa26^dreaddm3 mice) in which hM3Dq-mCherry was expressed only in iCre-expressing neurons, the inventors crossbred […] with Rosa26^dreadm3 mice having an upstream floxed transcription arrest element inserted at the Rosa26 gene locus. […] The decrease in Ts started about 5 minutes after CNO administration and lasted for approximately 12 hours. After that, the mice spontaneously recovered from the hypothermic state without external rewarming.
# [8] = centrally administered; cited from earlier work
# [9] = surface body temperature, thermographic camera
compound,measurement,setting,value
"OC[C@H]1O[C@@H](n2cnc3c(NC4CCCCC4)ncnc32)[C@H](O)[C@@H]1O [CHA, N6-cyclohexyladenosine]",TB and VO2 when TA was set to 12° C.,"[1]; IP 2.5 mg/kg, CHA-induced hypothermia",further decreased
same,"reaction to low TA (increase in VO2, posture, shivering)","[1]; IP 2.5 mg/kg, TA 12° C.",did not react to a low TA
same,induction of hypothermic/hypometabolic state,[1]; IP injection 2.5 mg/kg,effectively induced a hypothermic/hypometabolic state
"C[N+]1([O-])CCN(C2=Nc3cc(Cl)ccc3Nc3ccccc32)CC1 [CNO, clozapine N-oxide]","difference between the medians of TR, normal vs QIH",[2],8.41 °C
same,reduction in the median of H in QIH from the normal state,[2],95.3%
same,induction of QIH in rats,[3],induced QIH with hypothermia and hypometabolism
same,induction of QIH,"[4]; CNO injection, before in situ hybridization",effectively induced QIH
same,QIH after repeated injections in the same mice,[4]; FIG. 1h,reproducible
same,duration of very low TB state (below 30° C.),"[4]; IP injection, FIG. 1d",≥ 48 h
same,duration of QIH with a TB of less than 30° C.,"[4]; TA=20° C., one dose 1 mg/kg",≥ 48 h
same,time for VO2 to fully return to normal,"[4]; TA=20° C., one dose 1 mg/kg",about 1 week
same,hypothermia compared with Qrfp-iCre; Rosa26^dreaddm3 mice,"[4]; mouse, in vivo, ip","deeper, longer-lasting hypothermia"
same,O2 consumption rate (VO2) in the CNO-induced hypothermic state,"[4]; respiratory gas analysis, FIG. 1g",remarkable decrease
same,action of CNO on TB with TeTxLC co-expression,[4]; simultaneous injection of AAV2/9-hSyn-DIO-TeTxLC-eYFP and AAV10-EF1α-DIO-hM3Dq-mCherry,completely eliminated
same,VO2,"[4]; two hours after CNO injection, 3.60 before",1.17 mL/g/h
same,respiratory rate,"[4]; two hours after CNO injection, 333 before, tidal volume below detection limit",undetectable
same,heart rate,"[4]; two hours after CNO injection, 758 two hours before, average of n=3",215 beats/min
same,in vivo excitation of neurons (anti-Fos and anti-mCherry),[5],numerous mCherry and Fos double-positive neurons
same,excitation of mCherry-positive neurons,[6],strongly excited
same,hypothermia accompanying the CNO-induced immobile state,[7]; FIG. 1b,remarkable and sustained hypothermia
same,start of severe and sustained immobile state after injection,[7]; intraperitoneal (IP) injection,about 30 minutes
same,duration of decrease in Ts,[7]; [9],approximately 12 hours
same,start of decrease in Ts after administration,[7]; [9],about 5 minutes
"pyroglutamylated RFamide peptide (QDEGSEATGFLPAAGEKTSGPLGNLAEELNGYSRKKGGFSFRF; QRF-amide; UniProt P83859 91-133, looked up) [Qrfp, hypothalamic neuropeptide, endogenous ligand for the GPR103 receptor]","effect on sympathetic nerve outflow, heart rate and blood pressure",[8],increases sympathetic nerve outflow and increases the heart rate and the blood pressure
